# Measurements as given in patent US9683254B2, “Compositions and methods for identifying enzyme and transport protein inhibitors” (San Diego State University (SDSU) Foundation, priority 2010, dated 2017).
# Experiments:
# HIV-1 PR [1] = target: T1, HIV-1 PR (Human immunodeficiency virus type 1 group M subtype B, UniProt P04585); format: cell-based; parameters: expressed in transfected cells; host or cells: SupT1 T-cell clone (lentiviral transduction; rtTA/mCherry, 5xUAS-eGFP reporter, inducible PR/Gal4); conditions: for concentration resulting in eGFP activation: analyzed 50 hrs, range tested 1 nM to 20 μM
# Protocol: Finally, cells were infected with virus encoding the reporter, rtTA and inducible wild-type PR/Gal4 (pH-TRE-PR/Gal4) to test the ability for this system in T-cells to indicate the levels of PR activity.
# To determine the optimal time point for the analysis of eGFP expression in the presence of inhibitor, cells were activated with Dox and analyzed by flow cytometry 4, 8, 12, 16, 20, 25, 50, or 75 hours later. Six-well plates containing 250K cells per well in 3 mL media were treated either with DMSO alone as control, or 1 μg/mL Dox and 10 μM Indinavir.
# (§1) The range chosen extended from 1 nM to 20 μM.
# Flow Cytometry was performed on a BD FACSAria™ with 488 nm and 633 nm lasers. Data was collected on FACSDiva 6.1.1™ software and then exported to FlowJo™. eGFP expression was detected in the FITC channel and mCherry expression was detected on the PE-Texas-Red channel. Cells were first gated for size and granularity (FSC-A vs SSC-A) followed by doublet gating (FSC-A vs FSC-W and SSC-A vs. SSC-W). Sorted populations were gated on PE-TexasRed vs FITC plot. 250K cells were collected for each sample into 0.5 mL fetal calf serum (FCS) and 1 mL RPMI. Cells were then spun down at 1500 RPM and resuspended in fresh media in 6-well plates. Cells were allowed to grow for at least seven days to allow for expansion and loss of previously activated eGFP expression.
# FIG. 21A (upper left) schematically illustrates exemplary constructs utilized to generate infectious particles for the transduction of SupT1 cells with the various assay elements. FIG. 21B (right) illustrates data from a cell sorting assay comprising: a previously generated stable SupT1 cell line expressing rtTA and mCherry was infected with the reporter virus (generated from pH-5×UAS-eGFP), or co-infected with the reporter virus plus a virus encoding an inducible assay element (generated from pH-TRE-Gal4, pH-TRE-PR/Gal4, or pH-TRE-PRm/Gal4). Cells were then activated with either 1 μg/mL of Dox alone, or were pre-incubated for 5 minutes with 10 μM Indinavir following activation with 1 μg/mL Dox. […] Finally, single SupT1 cells from the purified population were sorted into 96 well plates and grown as a monoclonal population and then tested for optimal responses to assay induction of eGFP under appropriate conditions. FIG. 21C (lower left) illustrates images of fluorescence microscopy of SupT1 clones expressing the assay elements. Cells expressing various elements of the assay were treated as indicated with DMSO, DMSO+1 μg/mL Dox, or […] Dox+10 μM Indinavir and analyzed 24 hours later by fluorescence microscopy for mCherry and eGFP expression. D. Quantification of eGFP expression of clonal SupT1 cells treated with DMSO, DMSO+1 μg/mL Dox, or 1 μg/mL Dox+10 μM Indinavir.
# (§2) FIG. 22 graphically illustrates data determining the optimal conditions for activating the assay to screen for PR inhibition. FIG. 22A graphically illustrates a Doxycycline titration. Clonal SupT1 cells harboring an inducible Gal4, PR/Gal4 or PRm/Gal4 were pre-incubated in a 96 well plate with either DMSO or 10 μM Indinavir and then either left untreated, or activated with […] of Dox. Cells were analyzed by flow cytometry and gated to determine the number of cells positive for eGFP expression. FIG. 22B graphically illustrates a time course of eGFP Induction in response to Doxycyline activation in the presence of DMSO or a PI.
# HIV-1 PR [2] = target: T1, HIV-1 PR; format: cell-based; parameters: expressed in transfected cells; host or cells: SupT1 T-cell clone (lentiviral transduction; rtTA/mCherry, 5xUAS-eGFP reporter, inducible PR/Gal4); conditions: clonal SupT1, 96-well plates, pre-incubation with 1 μM PI, activation at 1 μg/mL Dox
# HIV-1 PR [3] = target: T1, HIV-1 PR; format: cell-based; parameters: expressed in transfected cells; rtTA/mCherry, 5xUAS-eGFP reporter, inducible PR/Gal4; conditions: HEK293T cells pre-treated with 10 uM inhibitor, co-transfected with reporter and pcDNA-PR/Gal4
# Protocol: It was of critical importance to verify the ability for the PR/Gal4 fusion to activate the reporter eGFP by the addition of PR inhibitors. For that purpose, 293T cells were pre-treated with 10 μM Indinavir and then co-transfected with reporter and pcDNA-PR/Gal4 vectors.
# 293T cells were transfected as follows. 15 μl of 2 mg/mL Polyethylenimine linear 25 kD (Polysciences, Inc.) were added to 125 μl of DMEM in a 1.8 ml Eppendorf tube. 3 g of each DNA was added drop-wise to each tube. Tubes were mixed and incubated for 20 min at RT. This mixture was then added drop-wise to 293T cells in a 10 cm plate at approximately 60-75% confluence. Cells were then analyzed by fluorescence microscopy and/or flow cytometry 24 hrs post transfection.
# Top Panel: Fluorescence microscopy of eGFP expression in HEK293T cells 24 hours post transfection with the reporter vector (pFR), or co-transfection with the reporter vector plus either the Gal4, PR/Gal4, or PRm/Gal4 vectors. Bottom panel: HEK293T cells were analyzed by flow cytometry at 24 hours post transfection with the same conditions top panel. Gates were drawn to determine the ability to identify cells with an active PI. […] Quantification of eGFP expression in HEK293T transfected with various assay elements. The numbers of cells under various conditions were quantified for eGFP levels indicative of PR inhibition. Results shown are an average of 3 experiments.
# SupT1 cells = experiment: Cell death in the reporter T-cell clones during PI concentration response; conditions: for concentration resulting in significant cell death, with decline in number of eGFP positive cells: human, 50 h
# Protocol: as §1
# Cells were then analyzed 50 hrs later for eGFP expression as determined by flow cytometry on a BD FACSAria.
# [4] = tested on: tet-responsive element (TRE); experiment: Doxycycline activation titration of clonal SupT1 cells (Tet-On, eGFP readout); format: cell-based
# Protocol: In order to optimize the assay for maximal Gal4, PR/Gal4 or PRm/Gal4 induction, we analyzed the effect of increasing levels of Dox. Cells with 0, 50, 100, 250, 500, 750, 1,000, and 2,000 ng/mL Dox were either treated with 10 uM DMSO or 10 uM Indinavir and analyzed 32 hours later. TRE-Gal4 cells reached saturation with Doxycycline at about 1,000 ng/mL whether Indinavir was present or not. […] Again, as with transiently transfected 293 cells, TRE-PR/Gal4 cells had little to non-detectable eGFP expression at any given Dox concentration in the absence of 10 μM Indinavir.
# as §2, with “PI. SupT1 clones harboring Gal4, PR/Gal4, or PRm/Gal4 were pre-incubated in a 96 well plate with either DMSO or 10 μM Indinavir and then activated with 1 μg/mL Dox. Cells were analyzed at either 4, 8, 12, 16, 20, 25, 50 or 75 hours by flow cytometry and gated for eGFP positive expression.” for “PI.”
# [5] = SupT1 PR/Gal4 clone, 1 μg/mL Dox, 50 hrs
# [6] = SupT1 PR/Gal4 clone, 1 μg/mL Dox
smiles,measurement,setting,value
COC(=O)N[C@H](C(=O)N[C@@H](Cc1ccccc1)[C@@H](O)CN(Cc1ccc(-c2ccccn2)cc1)NC(=O)[C@@H](NC(=O)OC)C(C)(C)C)C(C)(C)C [Atazanavir],effect on PR inhibition (ranking among tested PIs),HIV-1 PR [1]; [5],strongest effect
same,concentration resulting in eGFP activation,HIV-1 PR [1]; [6],1 nM
CC(C)(C)NC(=O)[C@@H]1CN(Cc2cccnc2)CCN1C[C@@H](O)C[C@@H](Cc1ccccc1)C(=O)N[C@H]1c2ccccc2C[C@H]1O [Indinavir],concentration inducing nearly full activation of reporter,HIV-1 PR [1]; [5],5 µM
same,levels of reporter activation at low concentrations (ranking among tested PIs),HIV-1 PR [1]; [5],lowest levels
same,activation of PR/Gal4 clones (FIG. 31),"HIV-1 PR [1]; SupT1 PR/Gal4 clones, Dox 1 μg/mL, PI 1 μM, <1% background",~90%
same,time of initial induction of eGFP expression,"HIV-1 PR [1]; clonal SupT1, 1 μg/mL Dox and 10 μM inhibitor",8 h
same,eGFP expression (% of cells) at 50 hours,"HIV-1 PR [1]; clonal SupT1, 1 μg/mL Dox and 10 μM inhibitor, by 50 hours",~100%
same,eGFP expression,"HIV-1 PR [1]; non-clonal SupT1 cells with reporter, rtTA and pH-TRE-PR/Gal4, 1 μg/mL Dox and 10 μM inhibitor",large induction
same,time at which activation of clones reaches max (FIG. 34),HIV-1 PR [2],around 48 hrs
same,eGFP expression (reporter activation by PR/Gal4),HIV-1 PR [3],drastic induction
CC(C)(C)NC(=O)[C@@H]1C[C@@H]2CCCC[C@@H]2CN1C[C@@H](O)[C@H](Cc1ccccc1)NC(=O)[C@H](CC(N)=O)NC(=O)c1ccc2ccccc2n1 [Saquinavir],concentration with significant cell death / decline in number of eGFP positive cells,"SupT1 cells; SupT1 PR/Gal4 clone, 50 hrs, maximal level tested",20 µM
CC(C)CN(C[C@@H](O)[C@H](Cc1ccccc1)NC(=O)O[C@H]1CO[C@H]2OCC[C@H]21)S(=O)(=O)c1ccc(N)cc1 [Darunavir],effect on PR inhibition (ranking among tested PIs),HIV-1 PR [1]; [5],strongest effect
same,concentration resulting in eGFP activation,HIV-1 PR [1]; [6],1 nM
Cc1c(O)cccc1C(=O)N[C@@H](CSc1ccccc1)[C@H](O)CN1C[C@H]2CCCC[C@H]2C[C@H]1C(=O)NC(C)(C)C [Nelfinavir],"concentration resulting in significant cell death, with decline in number of eGFP positive cells",SupT1 cells,around 1 uM
C[C@H]1c2cccc(O)c2C(=O)C2=C(O)[C@]3(O)C(=O)C(C(N)=O)=C(O)[C@@H](N(C)C)[C@@H]3[C@@H](O)[C@@H]21 [Doxycycline],"concentration at saturation of eGFP induction, TRE-Gal4 cells","[4]; clonal SupT1 TRE-Gal4, with or without 10 uM Indinavir, 32 hours","about 1,000 ng/mL"
same,"concentration at maximal eGFP induction, TRE-PR/Gal4 cells","[4]; clonal SupT1 TRE-PR/Gal4, pre-incubation with 10 μM Indinavir, 32 hours",around 500 ng/mL
same,"concentration at saturation of eGFP induction, TRE-PRm/Gal4 cells","[4]; clonal SupT1 TRE-PRm/Gal4, uninhibited and Indinavir-treated, 32 hours",around 250 ng/mL
same,concentration at which activation is saturated (FIG. 33),[4]; clonal SupT1 cells pre-incubated with DMSO or 1 μM Indinavir,around 1 μg/mL
Cc1cccc(C)c1OCC(=O)N[C@@H](Cc1ccccc1)[C@@H](O)C[C@H](Cc1ccccc1)NC(=O)[C@H](C(C)C)N1CCCNC1=O [Lopinavir],"concentration resulting in significant cell death, with decline in number of eGFP positive cells",SupT1 cells,around 1 uM
